One data set has as its target T1, human 5-HT1A receptors (Homo sapiens, UniProt P08908).
T1 construct: expressed in transfected cells; host or cells: CHO cells
T1 sequence (P08908 1-422): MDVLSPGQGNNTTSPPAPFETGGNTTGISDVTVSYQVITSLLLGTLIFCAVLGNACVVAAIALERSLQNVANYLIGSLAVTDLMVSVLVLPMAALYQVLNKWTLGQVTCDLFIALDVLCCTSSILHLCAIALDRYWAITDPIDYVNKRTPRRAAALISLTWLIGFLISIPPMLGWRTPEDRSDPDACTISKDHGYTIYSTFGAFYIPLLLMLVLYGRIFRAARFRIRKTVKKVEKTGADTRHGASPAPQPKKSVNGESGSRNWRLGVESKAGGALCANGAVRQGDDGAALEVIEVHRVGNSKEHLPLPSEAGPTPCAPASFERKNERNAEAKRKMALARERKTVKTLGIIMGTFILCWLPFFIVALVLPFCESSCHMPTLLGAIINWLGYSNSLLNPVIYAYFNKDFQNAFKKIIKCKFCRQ
Nature of the data set: displacement of [3H] 8-OH-DPAT from the 5-HT1A serotonin receptor. The class given is binding. As to conditions: CHO cells stably transfected with human 5-HT1A receptors.

The next data set deals with 5-HT transporter (Rattus norvegicus, UniProt P31652). Nature of the data set: Rat Brain 3H-Paroxetine Binding Assay (RB 5HT Transporter). As to conditions: rat frontal cortical membranes; 3H-paroxetine 0.1 nM, 60 min, 25° C. An excerpt: Rat Brain ^3H-Paroxetine Binding Assay (RB 5HT Transporter):
This assay was used to determine a compound's affinity of the 5-HT transporter.
All reactions were terminated by the addition of ice cold Tris buffer followed by rapid filtration using a Tom Tech filtration device to separate bound from free ^3H-paroxetine.

The text below walks through data of patent US7276603B2, “Benzofuranyl-and benzothienyl-piperazinyl quinolines and methods of their use” (Wyeth, priority 2003, dated 2007).

Sequence of 5-HT transporter (P31652 whole entry): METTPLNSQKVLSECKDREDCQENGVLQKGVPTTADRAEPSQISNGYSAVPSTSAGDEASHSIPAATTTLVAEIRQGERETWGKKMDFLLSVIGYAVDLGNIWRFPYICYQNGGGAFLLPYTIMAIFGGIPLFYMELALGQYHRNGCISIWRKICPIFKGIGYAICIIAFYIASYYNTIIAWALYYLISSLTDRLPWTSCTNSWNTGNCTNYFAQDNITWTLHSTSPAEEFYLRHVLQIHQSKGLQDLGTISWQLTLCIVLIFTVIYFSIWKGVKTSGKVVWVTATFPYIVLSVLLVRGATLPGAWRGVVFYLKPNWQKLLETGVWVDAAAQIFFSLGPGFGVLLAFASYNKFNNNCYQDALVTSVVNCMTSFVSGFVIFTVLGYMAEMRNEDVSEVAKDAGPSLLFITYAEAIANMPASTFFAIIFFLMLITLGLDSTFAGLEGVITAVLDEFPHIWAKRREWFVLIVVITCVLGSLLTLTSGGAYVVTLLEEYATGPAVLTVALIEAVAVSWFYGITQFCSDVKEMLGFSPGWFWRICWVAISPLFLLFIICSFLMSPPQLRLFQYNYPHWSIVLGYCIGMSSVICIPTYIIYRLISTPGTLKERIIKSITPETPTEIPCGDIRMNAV

Turning to `COc1ccc2occ([C@H]3CC[C@H](N4CCN(c5cc(F)cc6cccnc56)CC4)CC3)c2c1` [Compound 68, 6-fluoro-8-{4-[4-trans(5-methoxy-1-benzofuran-3-yl)cyclohexyl]piperazin-1-yl}quinoline], the melting point (in general, the temperature of the solid-liquid transition) lay in the range of 152 to 155 °C. Moreover, the inhibitory constant (Ki) – broadly, a dissociation constant, usually derived from enzyme kinetics or from competition with a known ligand – on human 5-HT1A receptors came to 0.22 nM. Also, the affinity on 5-HT transporter corresponds to a Ki of 121 nM.
The matching figures for `COc1cccc2c1occ2[C@H]1CC[C@@H](N2CCN(c3cccc4cccnc34)CC2)CC1` [Compound 61, 8-{4-[4-cis(7-methoxy-1-benzofuran-3-yl)cyclohexyl]-1-piperazinyl}quinoline]: 66 to 67 °C, 41.4 nM and 27 nM.
For the molecule `COc1cc(N2CCN([C@H]3CC[C@H](c4csc5ccccc54)CC3)CC2)c2ncccc2c1` [Compound 46, 8-{4-[4-trans (1-benzothien-3-yl)cyclohexyl]-1-piperazinyl}-6-methoxyquinoline], the melting point fell in the range of 166 to 168 °C. In addition, the inhibition constant Ki on human 5-HT1A receptors came to 126 nM. Moreover, the inhibition constant Ki on 5-HT transporter was 21 nM.
In the case of `Fc1ccc(N2CCN([C@H]3CC[C@H](c4coc5ccccc54)CC3)CC2)c2ncccc12` [Compound 54, 8-{4-[4-trans(1-benzofuran-3-yl)cyclohexyl]-1-piperazinyl}-5-fluoroquinoline], the melting point is 162 to 164 °C. This molecule showed a Ki at human 5-HT1A receptors of 25.1 nM. For the same molecule, the Ki on 5-HT transporter came to 38 nM.
Regarding `COc1cc(N2CCN([C@H]3CC[C@@H](c4cc5ccccc5s4)CC3)CC2)c2ncccc2c1` [Compound 70], the melting point fell in the range of 184 to 186 °C. Further, the Ki on human 5-HT1A receptors turned out to be 1550 nM. On 5-HT transporter, this molecule gave a Ki of 47 nM.
The corresponding values for `Fc1cc(N2CCN([C@H]3CC[C@H](c4csc5ccc(F)cc54)CC3)CC2)c2ncccc2c1` [Compound 48, 6-fluoro-8-{4-[4-trans(5-fluoro-1-benzothien-3-yl)cyclohexyl]piperazin-1-yl}quinoline] are 143 to 144 °C, 0.28 nM and 155 nM.
`Clc1cc(N2CCN([C@H]3CC[C@@H](c4csc5ccccc54)CC3)CC2)c2ncccc2c1` [Compound 41, 8-{4-[4-cis-(1-benzothien-3-yl)cyclohexyl]-1-piperazinyl}-6-chloroquinoline] came in with a melting point of 164 to 165 °C. This molecule came in with a Ki at human 5-HT1A receptors of 2.25 nM. On 5-HT transporter, this molecule gave a Ki of 65 nM.
The corresponding values for `Clc1cc(N2CCN([C@H]3CC[C@H](c4csc5ccccc54)CC3)CC2)c2ncccc2c1` [Compound 42, 8-{4-[4-trans(1-benzothien-3-yl)cyclohexyl]-1-piperazinyl}-6-chloroquinoline] are 143 to 144 °C, 140 nM and 157 nM.
With `Fc1cc(N2CCN([C@H]3CC[C@H](c4csc5ccccc54)CC3)CC2)c2ncccc2c1` [Compound 44, 8-{4-[4-trans(1-benzothien-3-yl)cyclohexyl]-1-piperazinyl}-6-fluoroquinoline], the melting point was 195 °C. For the same molecule, the Ki on human 5-HT1A receptors stood at 130 nM. This molecule had an inhibition constant Ki at 5-HT transporter of 380 nM.
For `Fc1cc(N2CCN([C@H]3CC[C@@H](c4csc5ccccc54)CC3)CC2)c2ncccc2c1` [Compound 43, 8-{4-[4-cis(1-benzothien-3-yl)cyclohexyl]-1-piperazinyl}-6-fluoroquinoline], the melting point fell in the range of 147 to 151 °C. At human 5-HT1A receptors, the Ki came to 1.17 nM. Besides, the Ki on 5-HT transporter was determined as 311 nM.
For `COc1ccc2occ(CCN3CCN(c4cc(Cl)cc5cccnc45)CC3)c2c1` [Compound 22, 8-{4-[2-(5-methoxy-1-benzofuran-3-yl)ethyl]-1-piperazinyl}-6-chloro-quinoline], the melting point was determined as 72 °C. For the same molecule, the Ki on human 5-HT1A receptors amounted to 2.69 nM. The molecule further yielded a Ki at 5-HT transporter of 2 nM.
The corresponding values for `COc1cccc2c1occ2[C@H]1CC[C@H](N2CCN(c3cccc4cccnc34)CC2)CC1` [Compound 62, 8-{4-[4-trans(7-methoxy-1-benzofuran-3-yl)cyclohexyl]-1-piperazinyl}quinoline] are 195 to 197 °C, 0.26 nM and 46 nM.
